Reference: US20230085307A1, “PYRIDAZINONE COMPOUND AND HERBICIDE” (NISSAN CHEMICAL CORPORATION, priority 2019, published 2023)

Experiments:
[1] = tested on: transplanted rice; experiment: Test Example 1: effect on crop, application before weed generation under submerged conditions (Table 16, symbol a); format: in vivo; settings: 320 g/ha applied herbicide
How it was run: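 Emulsion formulation, water-diluted to set dose, was put onto the flooded surface (4 cm depth, alluvial soil) the same day weeds were sown and 2.5-leaf rice transplanted. After 3 weeks at 25-30 °C under glass, each species was rated 0 (≤5% kill) to 5 (≥90% kill).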

[2] = tested on: directly sowed rice; experiment: Test Example 3: effect on crop by foliage application, Wagner pot (Table 18, symbol b); format: in vivo; settings: 320 g/ha
How it was run: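 Plants were sown in alluvial soil held under 0.1–0.5 cm standing water and grown 14 days in a greenhouse at 25–30 °C. An emulsifiable formulation, water-diluted to the set dose, was then sprayed onto the foliage, and effects were scored three weeks later using previously defined criteria.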

[3] = tested on: false cleavers; experiment: Test Example 4: herbicidal effect by soil treatment (Table 19, symbol Q); format: in vivo, false cleavers (Galium spurium); settings: amount of applied herbicide 320 g/ha
How it was run: (§1)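 Seeds were sown in sterilized diluvial soil and covered with about 1.5 cm of soil. An emulsion formulation diluted with water to a predetermined herbicide amount was sprayed evenly onto the soil surface. Plants grew in a greenhouse at 25° C. to 30° C., and the effect was scored three weeks after application using criteria from an earlier test.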

[4] = tested on: corn; experiment: Test Example 4: effect on crop by soil treatment (Table 19, symbol c); format: in vivo; settings: amount of applied herbicide 320 g/ha
How it was run: as §1

[5] = tested on: soybean; experiment: Test Example 4: effect on crop by soil treatment (Table 19, symbol d); format: in vivo; settings: amount of applied herbicide 320 g/ha
How it was run: as §1

[6] = tested on: wheat; experiment: Test Example 4: effect on crop by soil treatment (Table 19, symbol e); format: in vivo; settings: amount of applied herbicide 320 g/ha
How it was run: as §1

[7] = tested on: beet; experiment: Test Example 4: effect on crop by soil treatment (Table 19, symbol f); format: in vivo; settings: amount of applied herbicide 320 g/ha
How it was run: as §1

[8] = tested on: rapeseed; experiment: Test Example 4: effect on crop by soil treatment (Table 19, symbol g); format: in vivo; settings: amount of applied herbicide 320 g/ha
How it was run: as §1

[9] = tested on: false cleavers; experiment: Test Example 5: herbicidal effect by foliage application, plastic box (Table 20, symbol Q); format: in vivo, false cleavers (Galium spurium); settings: foliage application, 320 g/ha, three weeks after application
How it was run: (§2)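 Plants sown in sterilized diluvial soil and grown 14 days in a greenhouse at 25° C to 30° C, then sprayed on the foliage with the compound's emulsion diluted in water to a predetermined herbicide amount. Injury to weeds and crops scored three weeks after application on a visual rating scale.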

[10] = tested on: corn; experiment: Test Example 5: effect on crop by foliage application, plastic box (Table 20, symbol c); format: in vivo; settings: 320 g/ha, three weeks after application
How it was run: as §2

[11] = tested on: soybean; experiment: Test Example 5: effect on crop by foliage application, plastic box (Table 20, symbol d); format: in vivo; settings: 320 g/ha, three weeks after application
How it was run: as §2

[12] = tested on: wheat; experiment: Test Example 5: effect on crop by foliage application, plastic box (Table 20, symbol e); format: in vivo; settings: 320 g/ha, three weeks after application
How it was run: as §2

[13] = tested on: beet; experiment: Test Example 5: effect on crop by foliage application, plastic box (Table 20, symbol f); format: in vivo; settings: 320 g/ha, three weeks after application
How it was run: as §2

[14] = tested on: rapeseed; experiment: Test Example 5: effect on crop by foliage application, plastic box (Table 20, symbol g); format: in vivo; settings: 320 g/ha, three weeks after application
How it was run: as §2

Cc1nn(C)c(=O)c(-c2c(-c3ccc(C#N)cc3)sc3ccccc23)c1O [Compound No. 1-045, 5-hydroxy-2,6-dimethyl-4-(2-(4-cyanophenyl)benzo[b]thiophen-3-yl)pyridazin-3(2H)-one]
Effect on crop a: transplanted rice (grade 0-5) [1]: 0 (Herbicidal rate of 5% or less (almost no effect))
effect on crop b (directly sowed rice), rating 0-5 [2]: 0 (Herbicidal rate of 5% or less (almost no effect))
herbicidal effect rating, Q: false cleavers [3]: 4 (Herbicidal rate of 70% or more and less than 90%)
effect rating on crop, c: corn [4]: 0 (Herbicidal rate of 5% or less (almost no effect))
effect rating on crop, d: soybean [5]: 3 (Herbicidal rate of 40% or more and less than 70%)
effect rating on crop, e: wheat [6]: 0 (Herbicidal rate of 5% or less (almost no effect))
effect rating on crop, f: beet [7]: 5 (Herbicidal rate of 90% or more (almost completely withered))
effect rating on crop, g: rapeseed [8]: 5 (Herbicidal rate of 90% or more (almost completely withered))
herbicidal effect grade, Q: false cleavers [9]: 5 (Herbicidal rate of 90% or more (almost completely withered))
effect on crop grade, c: corn [10]: 0 (Herbicidal rate of 5% or less (almost no effect))
effect on crop grade, d: soybean [11]: 1 (Herbicidal rate of 5% or more and less than 20%)
effect on crop grade, e: wheat [12]: 0 (Herbicidal rate of 5% or less (almost no effect))
effect on crop grade, f: beet [13]: 5 (Herbicidal rate of 90% or more (almost completely withered))
effect on crop grade, g: rapeseed [14]: 5 (Herbicidal rate of 90% or more (almost completely withered))
melting point: 240 to 242 °C
